The values below are quoted from earlier work in patent publication US20230028307A1, “TREATMENT OF NEUROLOGICAL DISORDERS WITH AVERMECTINS” (Equilibre BioPharmaceuticals BV, priority 2020, published 2023).

The conditions of series [1]: humans, relatively large doses.
The subject of series [2] is episodes of epileptic attack. Particulars: patients suffering from onchoceriasis treated with ivermectin.

As for ivermectin, the side effects result in series [1] is on record as “no significant side effects”. The “episodes of epileptic attack” value in series [2] is listed as “reduced”.
